Data from USRE39616E1, “Aminoindan derivatives” (priority 1996, dated 2007).
Like-named read-outs stand apart in the source and are kept apart here.

Legend:
[1] = target: T1, Human erythrocyte acetylcholinesterase (Homo sapiens, UniProt P22303); test: biochemical; assay type: biochemical; conditions: read-out: AChE Inhibition In vitro IC50
T1 construct: Human erythrocyte acetylcholinesterase (type XIII, Sigma Israel); purchased Sigma Israel type XIII; host or cells: human erythrocytes
Protocol: Human erythrocyte acetylcholinesterase (type XIII, Sigma Israel), was prepared in a stock solution of 1 U/ml, containing Triton (1%) and bovine serum albumin (0.05%) in phosphate buffer (pH 8). The enzyme (0.05U) was incubated with 3-5 different concentrations of test compound (in triplicate) for periods of from 15 to 60 minutes at 37° C. […] The percentage inhibition of AChE by each concentration of drug is calculated by comparison with that of enzyme in the absence of drug.

whole brain AChE = target: T2, whole brain AChE (Mus musculus, UniProt P21836); conditions: for AChE Inhibition Ex vivo ED50 (AC): mice, whole brain, at peak of activity
T2 sequence (P21836 32-614): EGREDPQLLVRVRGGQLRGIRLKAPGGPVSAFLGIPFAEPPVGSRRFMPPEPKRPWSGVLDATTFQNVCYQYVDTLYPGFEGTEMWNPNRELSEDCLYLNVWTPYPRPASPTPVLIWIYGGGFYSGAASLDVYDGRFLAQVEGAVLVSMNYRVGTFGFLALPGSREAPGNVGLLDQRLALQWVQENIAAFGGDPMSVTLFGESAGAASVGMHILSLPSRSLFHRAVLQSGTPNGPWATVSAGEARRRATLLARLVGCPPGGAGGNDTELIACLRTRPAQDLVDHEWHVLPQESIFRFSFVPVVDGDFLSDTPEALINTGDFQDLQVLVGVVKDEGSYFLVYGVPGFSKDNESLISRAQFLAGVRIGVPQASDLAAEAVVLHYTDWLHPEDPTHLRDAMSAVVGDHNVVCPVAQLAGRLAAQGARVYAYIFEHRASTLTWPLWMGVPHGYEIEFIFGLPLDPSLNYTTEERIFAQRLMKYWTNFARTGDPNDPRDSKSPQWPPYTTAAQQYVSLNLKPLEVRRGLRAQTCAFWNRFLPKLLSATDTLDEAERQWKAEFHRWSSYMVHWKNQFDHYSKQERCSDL

[2] = system: mice, hypobaric hypoxic model; test: animal or person; assay type: in vivo
From the text: A 12 liter desiccator (desiccator A) and a 2.5 liter desiccator (desiccator B) were separately connected to a vacuum pump. Desiccator B was disconnected and allowed to equilibrate with room air whilst desiccator A was evacuated to a pressure of 100 mmHg. Four male ICR albino mice (22-28 g) were placed in desiccator B. Desiccator B was then closed to room air and connected to desiccator A. The pressure inside desiccator B was monitored using a mercury manometer and at the point were the pressure in desiccator B reached 200 mmpg (usually within 14 seconds), the two desiccators were disconnected from the vacuum pump and the pump switched off. The survival time from the moment of induction of hypoxia to the time of cessation of respiration was recorded for each mouse for a maximum of 15 minutes after which time room air was reintroduced to desiccator B. Survivors were monitored for signs of lethargy or vitality.
Effect of drug treatment was assessed as the percent of the survival time of the drug treated group with respect to the saline injected or vehicle injected control group. […] The effect of each dose of test drug was determined in duplicate i.e. two groups of 4 mice.
Positive reference drugs were sodium pentobarbital at a dose of 40 mg/kg, and diazepam 10 mg/kg given 0.5 h prior to hypoxia, physostigmine 0.2 and 0.4 mg/kg and neostigmine 0.2 mg/kg given sc 30 min before hypoxia. Methyl atropine 1 mg/kg was given sc. 10 min. before physostigmine.
Test drugs were dissolved in 0.9% saline, and injected sc. in the nip of the neck at a dose in accordance with body weight, 60-90 min. before hypoxia. The volume of injection was 0.2-0.3 mL per mouse (10 mL/kg). The initial dose was about one third of the reported LD50 for acetylcholine esterase inhibition. If no protection could be obtained, the dose was further increased to the nearest non-toxic dose. In case of protection, the dose was further reduced in an attempt to locate the “protective” dose range.

MAO-B = target: T3, MAO-B (Mus musculus, UniProt Q8BW75); test: Inhibition of MAO activity ex vivo (brain); assay type: in vivo, mice; conditions: mice, brain tissue
T3 construct: from tissue; host or cells: mouse brain
T3 sequence (Q8BW75 1-520): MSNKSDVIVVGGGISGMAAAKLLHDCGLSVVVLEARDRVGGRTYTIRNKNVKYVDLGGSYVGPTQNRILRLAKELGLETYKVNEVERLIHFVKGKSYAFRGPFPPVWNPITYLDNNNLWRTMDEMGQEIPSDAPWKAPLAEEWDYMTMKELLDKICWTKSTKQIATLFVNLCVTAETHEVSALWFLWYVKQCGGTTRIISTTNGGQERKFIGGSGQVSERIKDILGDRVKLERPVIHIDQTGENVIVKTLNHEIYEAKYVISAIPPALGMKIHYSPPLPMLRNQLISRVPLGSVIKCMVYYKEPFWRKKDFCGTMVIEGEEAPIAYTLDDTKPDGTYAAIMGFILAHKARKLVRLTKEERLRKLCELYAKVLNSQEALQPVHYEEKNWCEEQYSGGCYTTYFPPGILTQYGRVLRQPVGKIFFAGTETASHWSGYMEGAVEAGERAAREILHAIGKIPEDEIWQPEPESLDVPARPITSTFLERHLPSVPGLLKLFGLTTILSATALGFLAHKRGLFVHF
Protocol: (§1) Substrate concentrations used were 50 μM (PEA) and 1 mM (5-HT).
(§2) Male Sabra mice, weighing 45-50 g were injected with test compound solutions (prepared in 0.9% saline). Each dose was administered to two or three mice. The mice were sacrificed two hours after drug administration or at a time corresponding to the peak AChE inhibition time (see Table 11). The brain and liver were rapidly dissected and stored in appropriate vials on ice. The tissues were weighed, diluted to ½ in sucrose 0.3M and stored at −20° C. before performance of the MAO assay described above. The results given in Table 11 relate to measurements made on brain tissue only.

MAO-A = target: T4, MAO-A (Mus musculus, UniProt Q64133); test: Inhibition of MAO activity ex vivo (brain); assay type: in vivo, mice; conditions: mice, brain tissue
T4 construct: from tissue; host or cells: mouse brain
T4 sequence (Q64133 1-526): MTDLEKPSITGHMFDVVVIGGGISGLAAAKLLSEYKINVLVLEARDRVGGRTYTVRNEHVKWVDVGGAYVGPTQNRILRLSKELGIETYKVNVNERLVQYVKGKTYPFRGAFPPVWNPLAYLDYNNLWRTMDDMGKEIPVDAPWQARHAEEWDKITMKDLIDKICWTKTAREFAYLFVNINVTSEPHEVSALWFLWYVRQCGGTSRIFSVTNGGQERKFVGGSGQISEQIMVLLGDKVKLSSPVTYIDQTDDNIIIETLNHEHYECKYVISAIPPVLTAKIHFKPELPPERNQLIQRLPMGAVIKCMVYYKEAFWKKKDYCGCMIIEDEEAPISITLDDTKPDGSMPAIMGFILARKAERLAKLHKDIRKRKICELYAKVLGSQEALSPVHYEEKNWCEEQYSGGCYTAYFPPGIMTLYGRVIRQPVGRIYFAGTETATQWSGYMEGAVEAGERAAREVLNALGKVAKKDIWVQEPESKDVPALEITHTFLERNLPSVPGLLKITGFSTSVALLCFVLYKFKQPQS
Protocol: as §1, §2

mice = conditions: mice, within 6 hours after administration
Protocol: Therapeutic Ratio was calculated as LD50 divided by ED50 of ex vivo acetylcholine esterase inhibition.

[3] = human erythrocyte AChE, at time of peak activity

T1 sequence (P22303 32-617 isoform P22303-2 limits assumed): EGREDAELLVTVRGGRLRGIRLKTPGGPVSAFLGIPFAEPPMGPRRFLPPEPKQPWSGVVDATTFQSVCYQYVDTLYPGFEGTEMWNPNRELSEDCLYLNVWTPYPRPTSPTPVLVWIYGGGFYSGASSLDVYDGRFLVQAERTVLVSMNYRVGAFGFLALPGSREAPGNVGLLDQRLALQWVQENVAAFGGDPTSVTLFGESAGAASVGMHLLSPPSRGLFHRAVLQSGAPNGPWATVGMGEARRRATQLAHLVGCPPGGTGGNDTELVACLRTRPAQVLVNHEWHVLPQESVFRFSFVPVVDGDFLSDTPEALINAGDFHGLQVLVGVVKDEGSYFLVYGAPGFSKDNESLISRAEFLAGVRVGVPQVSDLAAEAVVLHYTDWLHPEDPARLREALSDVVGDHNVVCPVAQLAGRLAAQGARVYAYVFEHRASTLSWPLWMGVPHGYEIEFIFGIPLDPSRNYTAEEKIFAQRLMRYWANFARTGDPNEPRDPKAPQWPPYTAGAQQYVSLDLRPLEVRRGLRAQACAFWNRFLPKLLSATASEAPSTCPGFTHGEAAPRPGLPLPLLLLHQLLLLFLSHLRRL

C#CCNC1CCc2ccc(OC(=O)N(C)CCCC)cc21 (centres unmarked) [Compound 87]
IC50 [1]: 9.1 µM

C#CCNC1CCc2ccc(OC(=O)NCC)cc21 (centres unmarked) [Compound 56]
IC50 [1, 3]: 11.5 µM | AChE Inhibition Ex vivo ED50 (AC) (whole brain AChE): 180 µmol/kg

CCCC(C)C1(CC)C(=O)N=C([O-])NC1=O.[Na+] (centres unmarked) [Nembutal]
Protection (survival time) ([2]; 40 mg/kg, 30 min before hypoxia): 253 ± 200 % of control

CNC(=O)Oc1ccc2c(c1)[C@]1(C)CCN(C)[C@@H]1N2C [physostigmine, reference compound]
response vs control in vivo at 0.2 mg/kg ([2]; Mus musculus, 0.2 mg/kg sc, 30 min before hypoxia, read-out: Protection (survival time)): 453 ± 222% | response vs control in vivo at 0.4 mg/kg ([2]; Mus musculus, 0.4 mg/kg sc, 30 min before hypoxia, read-out: Protection (survival time)): 552 ± 210%

C#CCNC1CCc2ccc(OC(=O)N(C)C)cc21 (single isomer, unassigned) [Compound 54]
MAO-B Inhibition Ex vivo ED50 (MAO-B): >100 µmol/kg | MAO-A Inhibition Ex vivo ED50 (MAO-A): >100 µmol/kg

CNC1CCc2cccc(OC(=O)N(C)C)c21 (centres unmarked) [Compound 9]
AChE Inhibition Ex vivo ED50 (AC) (whole brain AChE): 19 µmol/kg | AChE Inhibition Time to peak activity t (whole brain AChE; mouse, in vivo): 15 min | Acute Toxicity LD50 (LD) (mice): 93 µmol/kg

C#CCN(C)C1CCc2ccc(OC(=O)N(C)CC)cc21 (centres unmarked) [Compound 30]
IC50 [1]: 1300 µM

CCN(C)C(=O)Oc1cccc2c1C(N)CC2 (centres unmarked) [Compound 5]
AChE Inhibition Ex vivo ED50 (AC) (whole brain AChE): 85.0 µmol/kg | AChE Inhibition Time to peak activity t (whole brain AChE; mouse, in vivo): 60 min | AChE Inhibition Time to return to 50% of peak t (whole brain AChE; mouse, in vivo): >120 min | Acute Toxicity LD50 (LD) (mice): 840 µmol/kg | MAO-B Inhibition Ex vivo ED50 (MAO-B): >>277 μmoles/kg | MAO-A Inhibition Ex vivo ED50 (MAO-A): >>277 μmoles/kg

CN(C)C(=O)Oc1ccc2c(c1)C(N(C)C)CC2 (centres unmarked) [Compound 12]
AChE Inhibition Ex vivo ED50 (AC) (whole brain AChE): 8.0 µmol/kg | AChE Inhibition Time to peak activity t (whole brain AChE; mouse, in vivo): 15 min | response vs control in vivo at 7 mg/kg ([2]; Mus musculus, sc, read-out: Protection (survival time), 7 mg/kg sc, 60 min before hypoxia): 248 ± 97% | response vs control in vivo at 10 mg/kg ([2]; Mus musculus, sc, read-out: Protection (survival time), 10 mg/kg sc, 60 min before hypoxia): 386 ± 238% | response vs control in vivo at 15 mg/kg ([2]; Mus musculus, sc, read-out: Protection (survival time), 15 mg/kg sc, 60 min before hypoxia): 649 ± 221% | response vs control in vivo at 20 mg/kg ([2]; Mus musculus, sc, read-out: Protection (survival time), 20 mg/kg sc, 60 min before hypoxia): 725 ± 128% | Acute Toxicity LD50 (LD) (mice): <20 µmol/kg

C#CCNC1CCc2cccc(OC(=O)N(C)CCC)c21 (centres unmarked) [Compound 28]
IC50 [1, 3]: 100 µM
